Measurements taken from patent US20030215462A1, “Use of UGT inhibitors to increase bioavailability” (priority 2001, published 2003).
“And” between values parts separate entries of the source, which are not always exact repeats. Equal values may be shown once.

Legend:
[1] = system: UGT enzymes of human liver microsomes; experiment: Inhibition of raloxifene glucuronidation (G1, G2) in human liver microsomes; type: biochemical; conditions: for % of control metabolism (SD, n = 3), raloxifene glucuronide G1 / % of control metabolism (SD, n = 3), raloxifene glucuronide G2: human liver microsomes 250 μg/ml, 15 min
Excerpt: (§1) Compounds were eluted using a binary solvent gradient system. […] Solvent B was methanol. […] Detection was at 280 nm.

[2] = system: UGT enzymes of pooled human jejunum microsomes; experiment: Inhibition of estradiol (E2) glucuronidation in pooled human jejunum microsomes; type: biochemical; conditions: jejunum HJ61, E2 50 μM
Excerpt: Compounds were eluted using a binary solvent gradient system where solvent A was dilute phosphoric acid (pH 3) and solvent B was 80:20 acetonitrile-methanol. […] Detection was at 280 nm.

UGT1A9 = target: T1, UGT1A9 (Homo sapiens, UniProt O60656); experiment: Inhibition of raloxifene glucuronidation by recombinant UGT1A9 Supersomes; conditions: for Inhibition of raloxifene glucuronidation, UGT1A9, first line per inhibitor (G1): first line (G1, metabolite not given); for Inhibition of raloxifene glucuronidation, UGT1A9, first line per inhibitor (G1) / Inhibition of raloxifene glucuronidation, UGT1A9, second line per inhibitor (G2): raloxifene 50 μM, 250 μg/ml Supersomes, 1 mM UDPGA, 15 min; for activity at 15 min, 2 μM / activity at 15 min, 5 µM / activity at 15 min, 10 µM / activity at 15 min, 25 µM / activity at 15 min, 50 µM: human, Supersomes with recombinant human UGT1A9, pH 7.5, probe raloxifene 50 μM; for Inhibition of raloxifene glucuronidation, UGT1A9, second line per inhibitor (G2): second line (G2, metabolite not given)
T1 sequence (O60656 26-530): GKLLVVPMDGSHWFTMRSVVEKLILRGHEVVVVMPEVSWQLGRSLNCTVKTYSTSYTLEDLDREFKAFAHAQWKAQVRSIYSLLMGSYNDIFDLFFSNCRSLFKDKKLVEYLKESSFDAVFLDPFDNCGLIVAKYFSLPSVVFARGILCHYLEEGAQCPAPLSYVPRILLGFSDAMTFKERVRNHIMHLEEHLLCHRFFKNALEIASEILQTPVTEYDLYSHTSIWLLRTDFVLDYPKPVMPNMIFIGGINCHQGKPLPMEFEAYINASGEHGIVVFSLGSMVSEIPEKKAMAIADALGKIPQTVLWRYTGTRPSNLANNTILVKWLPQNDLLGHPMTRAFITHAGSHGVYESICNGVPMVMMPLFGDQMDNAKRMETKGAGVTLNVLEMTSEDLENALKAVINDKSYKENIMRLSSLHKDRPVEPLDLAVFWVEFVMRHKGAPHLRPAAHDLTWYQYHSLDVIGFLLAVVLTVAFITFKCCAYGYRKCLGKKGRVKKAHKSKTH

[3] = system: T2, UGT enzymes of human liver microsomes; experiment: Inhibition of labetalol glucuronidation (LG1, LG2) in human liver microsomes; type: biochemical; conditions: labetalol 50 μM
T2 construct: residual metabolism (percentage of control), labetalol LG1; other: labetalol 50 μM; residual metabolism (percentage of control), labetalol LG1; residual metabolism (percentage of control), labetalol LG2; inhi

[4] = system: UGT enzymes of pooled human jejunum microsomes; experiment: Inhibition of raloxifene glucuronidation (G1, G2) in pooled human jejunum microsomes; type: biochemical; conditions: jejunum HJ61; inhibitor 10 μM
Method: as §1
Standardized incubations utilized […] microsomal protein, 1 mM UDPGA and a 30 min incubation time.

UGT1A10 = target: T3, UGT1A10 (Homo sapiens, UniProt Q9HAW8); experiment: Inhibition of raloxifene glucuronidation by recombinant UGT1A10 Bacculosomes; conditions: human; for activity at 15 min, 50 µM: Bacculosomes with recombinant human UGT1A10, pH 7.5, probe raloxifene 50 μM, inhibitor 50 μM
T3 sequence (Q9HAW8 26-530): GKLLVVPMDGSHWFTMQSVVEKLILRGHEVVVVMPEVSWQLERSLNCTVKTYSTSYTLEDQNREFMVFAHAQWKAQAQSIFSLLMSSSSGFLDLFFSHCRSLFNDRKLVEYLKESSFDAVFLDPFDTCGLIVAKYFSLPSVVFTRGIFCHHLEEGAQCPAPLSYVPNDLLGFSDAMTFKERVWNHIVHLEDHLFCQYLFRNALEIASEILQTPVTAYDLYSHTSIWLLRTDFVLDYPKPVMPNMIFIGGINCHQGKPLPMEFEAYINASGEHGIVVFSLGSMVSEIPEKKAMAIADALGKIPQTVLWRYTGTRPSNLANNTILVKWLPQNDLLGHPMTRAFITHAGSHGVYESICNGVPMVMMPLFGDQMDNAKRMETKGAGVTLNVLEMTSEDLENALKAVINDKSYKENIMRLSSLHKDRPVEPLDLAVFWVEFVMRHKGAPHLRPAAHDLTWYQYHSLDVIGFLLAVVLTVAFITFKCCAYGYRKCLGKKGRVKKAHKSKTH
Method: Compounds were eluted using a binary solvent gradient system. Solvent A was water brought to pH 8 with NH4OH. Solvent B was methanol. Solvent flow rate was 1 ml/min and the column temperature was maintained at 50° C. Detection was at 280 nm. […] The system was then returned to the initial conditions and equilibrated for 3 min.

[5] = inhibitor 2 μM, raloxifene 50 μM
[6] = inhibitor 5 μM, raloxifene 50 μM
[7] = inhibitor 10 μM, raloxifene 50 μM
[8] = inhibitor 25 μM, raloxifene 50 μM
[9] = inhibitor 50 μM, raloxifene 50 μM
[10] = inhibitor 100 μM, raloxifene 50 μM
[11] = inhibitor 500 μM, raloxifene 50 μM
[12] = liver lot 032101, inhibitor 10 μM
[13] = liver lot 062101, inhibitor 10 μM
[14] = liver lot 083000, inhibitor 10 μM
[15] = raloxifene 50 μM, inhibitor 10 μM
[16] = raloxifene 50 μM, inhibitor 25 μM
[17] = raloxifene 50 μM, inhibitor 50 μM
[18] = raloxifene 50 μM, inhibitor 100 μM

CC/C(=C(/CC)c1ccc(O)cc1)c1ccc(O)cc1 [Diethylstilbestrol, reference compound]
% of control metabolism (SD, n = 3), raloxifene glucuronide G1 [1, 5]: 94 (6) %
% of control metabolism (SD, n = 3), raloxifene glucuronide G1 [1, 6]: 83 (1) %
% of control metabolism (SD, n = 3), raloxifene glucuronide G1 [1, 7]: 58 (3) %
% of control metabolism (SD, n = 3), raloxifene glucuronide G1 [1, 8]: 36 (2) %
% of control metabolism (SD, n = 3), raloxifene glucuronide G1 [1, 9]: 14 (1) %
% of control metabolism (SD, n = 3), raloxifene glucuronide G1 [1, 10]: 8 (0) %
% of control metabolism (SD, n = 3), raloxifene glucuronide G1 [1, 11]: 0 (0) %
% of control metabolism (SD, n = 3), raloxifene glucuronide G2 [1, 5]: 107 (5) %
% of control metabolism (SD, n = 3), raloxifene glucuronide G2 [1, 6]: 109 (1) %
% of control metabolism (SD, n = 3), raloxifene glucuronide G2 [1, 7]: 111 (7) %
% of control metabolism (SD, n = 3), raloxifene glucuronide G2 [1, 8]: 100 (5) %
% of control metabolism (SD, n = 3), raloxifene glucuronide G2 [1, 9]: 58 (2) %
% of control metabolism (SD, n = 3), raloxifene glucuronide G2 [1, 10]: 43 (0) %
% of control metabolism (SD, n = 3), raloxifene glucuronide G2 [1, 11]: 0 (0) %
% of control metabolism, raloxifene G1 [1, 12]: 70 (2) %
% of control metabolism, raloxifene G2 [1, 12]: 96 (1) %
% of control metabolism, raloxifene G1 [1, 13]: 89 (2) %
% of control metabolism, raloxifene G2 [1, 13]: 83 (2) %
% of control metabolism, raloxifene G1 [1, 14]: 58 (3) %
% of control metabolism, raloxifene G2 [1, 14]: 111 (7) %
% of control metabolism, raloxifene G1 [1, 15]: 58 (3) %
% of control metabolism, raloxifene G2 [1, 15]: 111 (7) %
% of control metabolism, raloxifene G1 [1, 16]: 36 (1) %
% of control metabolism, raloxifene G2 [1, 16]: 100 (5) %
% of control metabolism, raloxifene G1 [1, 17]: 14 (1) %
% of control metabolism, raloxifene G2 [1, 17]: 58 (2) %
% of control metabolism, raloxifene G1 [1, 18]: 8 (0) %
% of control metabolism, raloxifene G2 [1, 18]: 43 (0) %
residual metabolism (% of control), E2-3-β-D-glucuronide ([2]; inhibitor 1 μM): 86 (2) %
residual metabolism (% of control), E2-17-β-D-glucuronide ([2]; inhibitor 1 μM): 108 (5) %
residual metabolism (% of control), E2-3-β-D-glucuronide ([2]; inhibitor 10 μM): 53 (4) %
residual metabolism (% of control), E2-17-β-D-glucuronide ([2]; inhibitor 10 μM): 78 (3) %
residual metabolism (% of control), E2-3-β-D-glucuronide ([2]; inhibitor 100 μM): 5 (1) %
residual metabolism (% of control), E2-17-β-D-glucuronide ([2]; inhibitor 100 μM): 24 (4) %
Inhibition of raloxifene glucuronidation, UGT1A9, first line per inhibitor (G1) (UGT1A9; inhibitor 2 μM): 90 (0)
Inhibition of raloxifene glucuronidation, UGT1A9, first line per inhibitor (G1) (UGT1A9; inhibitor 5 μM): 86 (0)
Inhibition of raloxifene glucuronidation, UGT1A9, first line per inhibitor (G1) (UGT1A9; inhibitor 10 μM): 78 (3)
Inhibition of raloxifene glucuronidation, UGT1A9, first line per inhibitor (G1) (UGT1A9; inhibitor 25 μM): 49 (5)
Inhibition of raloxifene glucuronidation, UGT1A9, first line per inhibitor (G1) (UGT1A9; inhibitor 50 μM): 31 (2)
activity at 15 min, 2 μM (UGT1A9; formation of glucuronide G1, % of control metabolism, raloxifene G1, UGT1A9, inhibitor 2 μM): 90%
activity at 15 min, 5 µM (UGT1A9; formation of glucuronide G1, % of control metabolism, raloxifene G1, UGT1A9, inhibitor 5 μM): 86%
activity at 15 min, 10 µM (UGT1A9; formation of glucuronide G1, % of control metabolism, raloxifene G1, UGT1A9, inhibitor 10 μM): 78%
activity at 15 min, 25 µM (UGT1A9; formation of glucuronide G1, % of control metabolism, raloxifene G1, UGT1A9, inhibitor 25 μM): 49%
activity at 15 min, 50 µM (UGT1A9; formation of glucuronide G1, % of control metabolism, raloxifene G1, UGT1A9, inhibitor 50 μM): 31%
activity at 15 min, 2 μM (UGT1A9; formation of glucuronide G2, % of control metabolism, raloxifene G2, UGT1A9, inhibitor 2 μM): 175%
activity at 15 min, 5 µM (UGT1A9; formation of glucuronide G2, % of control metabolism, raloxifene G2, UGT1A9, inhibitor 5 μM): 260%
activity at 15 min, 10 µM (UGT1A9; formation of glucuronide G2, % of control metabolism, raloxifene G2, UGT1A9, inhibitor 10 μM): 290%
activity at 15 min, 25 µM (UGT1A9; formation of glucuronide G2, % of control metabolism, raloxifene G2, UGT1A9, inhibitor 25 μM): 309%
activity at 15 min, 50 µM (UGT1A9; formation of glucuronide G2, % of control metabolism, raloxifene G2, UGT1A9, inhibitor 50 μM): 245%
Inhibition of raloxifene glucuronidation, UGT1A9, second line per inhibitor (G2) (UGT1A9; inhibitor 2 μM): 175 (0)
Inhibition of raloxifene glucuronidation, UGT1A9, second line per inhibitor (G2) (UGT1A9; inhibitor 5 μM): 260 (3)
Inhibition of raloxifene glucuronidation, UGT1A9, second line per inhibitor (G2) (UGT1A9; inhibitor 10 μM): 290 (9)
Inhibition of raloxifene glucuronidation, UGT1A9, second line per inhibitor (G2) (UGT1A9; inhibitor 50 μM): 245 (3)
residual metabolism (percentage of control), labetalol LG1 ([3]; inhibitor 50 μM): 23 (3) %
residual metabolism (percentage of control), labetalol LG2 ([3]; inhibitor 50 μM): 29 (8) %
residual metabolism (percentage of control), labetalol LG1 ([3]; inhibitor 100 μM): 1 (3) % and 5 (3) %
residual metabolism (percentage of control), labetalol LG2 ([3]; inhibitor 100 μM): 11 (1) % and 8 (1) %
% of control metabolism, raloxifene G1 [4]: 78 (0) %
% of control metabolism, raloxifene G2 [4]: 90 (4) %
activity at 15 min, 10 µM (UGT1A10; Bacculosomes with recombinant human UGT1A10, pH 7.5, % of control metabolism, raloxifene glucuronide (one value printed, G1 or G2 not stated), UGT1A10, inhibitor 10 μM): 70%
activity at 15 min, 25 µM (UGT1A10; Bacculosomes with recombinant human UGT1A10, pH 7.5, % of control metabolism, raloxifene glucuronide (one value printed, G1 or G2 not stated), UGT1A10, inhibitor 25 μM): 74%
activity at 15 min, 50 µM (UGT1A10; formation of glucuronide G1, % of control metabolism, raloxifene G1, UGT1A10): 50%
activity at 15 min, 50 µM (UGT1A10; formation of glucuronide G2, % of control metabolism, raloxifene G2, UGT1A10): 39%
